Laboratory results reported in patent US20230201550A1, “SYSTEMS AND METHODS FOR TREATING PERSISTENT PAIN OF NEUROGENIC ORIGIN AND COMPLEX INJURY” (Nova Neura, LLC, priority 2020, published 2023).
Blank lines part the entries; values can stand above or below the compound they belong to.

How the values were obtained:
rabbit ear = settings: rating out of 5 (x/5); cited from earlier work
[1] = Stability and crystallization of the topical composition; format: physicochemical
Source text: Through experimentation it was discovered that a combination of sugars (e.g. mannitol with dextrose) with or without the addition of corn syrup (also known as glucose-fructose) would impede or completely eliminate the crystallization process, allowing for a higher concentration of these ingredients in solution.

Compound: CCCCCCCCCCCCCCCC(=O)OCCCCCCCC [octyl palmitate]
comedogenicity (rabbit ear): 4/5

Compound: CC(C)=CCC/C(C)=C/CC/C(C)=C/CC/C=C(\C)CC/C=C(\C)CCC=C(C)C [squalene]
comedogenicity (rabbit ear): 1/5

Compound: CCCCCCCCCCCCCCCCCC(=O)OCC(O)CO (centres unmarked) [glyceryl stearate]
comedogenicity (rabbit ear): 3/5

Compound: CC12CCC(CC1=O)C2(C)C (centres unmarked) [camphor, reference compound]
comedogenicity (rabbit ear): 2/5

stability in solution / of the formula, shelf-life [1]: highly effective stabilizing measure
Compound: OCC(O)CO [Glycerin]

Compound: CCCCCCCCCCCCCC(=O)OC(C)C [isopropyl myristate]
comedogenicity (rabbit ear): 5/5

Compound: cyclomethicone
comedogenicity (rabbit ear): 0/5

Compound: CCCCCCCCCCCCCCCCCCO [cetearyl alcohol]
comedogenicity (rabbit ear): 4/5

crystallization of Mannitol in cold environments ([1]; winter temperatures or refrigerator, combination of sugars): significantly mitigated or eliminated
Compound: OC[C@@H](O)[C@@H](O)[C@H](O)[C@H](O)CO [Mannitol, reference compound]

Compound: caprylic/capric triglyceride
comedogenicity (rabbit ear): 0/5

Compound: O=C1CC[C@@H](C(=O)[O-])N1.[Na+] [Sodium PCA, sodium L-pyroglutamate]
comedogenicity (rabbit ear): 0/5
